Patent US7691827B2, “Amide prodrug of gemcitabine, compositions and use thereof” (Eli Lilly and Company, priority 2004, dated 2010)

What was measured:
[1] = Monkey Pharmacokinetics Assay; assay type: in vivo; details: administered intravenously to cynomolgus monkeys
Description: Monkey Pharmacokinetics Assay
The pharmacokinetic profiles of gemcitabine and a compound of formula I, are assessed in cynomolgus monkeys following oral and intravenous administration in a crossover design. Compounds are administered at doses selected to contain approximately 10 mg/kg of gemcitabine. Blood samples are collected into EDTA-treated tubes containing tetrahydrouridine (0.5 mM final concentration in blood) at designated intervals for up to 48 hours. Animals are pretreated with ranitidine (intravenous, 5 mg/kg) in the oral dosing periods. Plasma is isolated by centrifugation and frozen prior to analysis. Plasma concentrations of gemcitabine and a compound of formula I are determined by LC/MS/MS analysis. Pharmacokinetic parameters are determined using WinNonlin software (Pharsight Corp., Mountain View, Calif.).

[2] = 7-Day Dog Study (oral toxicity); assay type: in vivo; details: oral capsule once daily for 7 days, beagle dogs
Description: To evaluate the toxicity profile of a compound of formula I when administered to Beagle dogs for 7 days, and to determine the plasma concentrations of a compound of formula I and metabolites gemcitabine HCl and deoxydifluorouridine after 1 or 7 doses, a 7-day dog study is conducted.
Male and female beagle dogs 6-48 months of age are dosed orally via capsule with a compound of formula I. A range of doses is selected in an effort to determine a maximum tolerated dose and dose limiting toxicity. A dose volume of 1 mL/kg is used and doses aree administered once daily.
Clinical signs, body weight, food consumption, body temperature, hematology (including coagulation), clinical chemistry, urinalysis, plasma concentrations of the compound of Example I and its metabolites gemcitabine HCl and deoxydifluorouridine, and pathology (including gross pathology, organ weights, and histopathology) were evaluated.

[3] = Liver S9 Hydrolysis Assay (monkey); assay type: in vitro ADME, cynomolgus monkey
Description: (§1) Liver S9 Hydrolysis Assay
(§2) Hydrolysis of a compound of formula I by liver enzymes is determined by liver hydrolysis assay. Liver homogenates are prepared from CD-1 mouse, beagle dog, cynomolgus monkey, and human livers. Liver tissues are cut into small pieces using scissors, then, homogenized in 50 mM acetate buffer using Polytron (PT-10-85) for 1 min. Post-mitochondrial (S9) fractions are prepared from each by ultracentrifugation at 9,000×g at 4° C. for 10 min. Mouse, dog and monkey liver S9 fractions are prepared from freshly collected tissues, while human liver S9 are prepared from previously frozen tissue. After centrifugation, the supernatant is collected and protein concentrations are determined by standard spectrophotometric techniques. The prepared S9 fractions are store at −70° C. before using.
(§3) The hydrolytic rates of a compound of formula I in liver S9 is determined by incubating compound (10 uM) with S9 (2 mg/mL of total protein) in phosphate buffered saline at pH 8.0 for up to 6 hours. Concentrations of gemcitabine released via hydrolysis are determined by LC/MS analysis after the reaction is quenched with acetonitrile. Hydrolysis rates are calculated at 30 minutes in screening experiments and from the slope of the linear portion of the hydrolysis vs. time curves in characterization studies of a compound of formula I.

[4] = Liver S9 Hydrolysis Assay (dog); assay type: in vitro ADME, beagle dog; details: dog liver S9, 10 uM, pH 8.0
Description: as §1, §2, §3

[5] = 14 Day Mouse Study (oral toxicity and exposure); assay type: in vivo; details: 14 days oral gavage, CD-1 mice
Description: A 14-Day Mouse Study is conducted to evaluate whether a compound of formula I produces adverse effects in mice following 14 days of oral gavage dosing and to determine the plasma concentrations of a compound of formula I and its metabolites gemcitabine HCl and deoxydifluorouridine after 1 or 14 doses.
Male and female CD-1 mice 9-12 weeks of age are dosed with a compound of formula I […] by oral gavage. A range of doses is selected in an effort to determine a maximum tolerated dose and dose limiting toxicity. A dose volume of 10 mL/kg is used and doses are administered once daily.
Clinical signs, body weight, food consumption, hematology, clinical chemistry, plasma concentrations of a compound of formula I and metabolites gemcitabine HCl and deoxydifluorouridine, and pathology (including gross pathology, organ weights, and histopathology) are evaluated.

[6] = 4-Day Mouse Screen (oral toxicity); assay type: in vivo; details: oral gavage once daily for 4 days, molar equivalent of 8-mg/kg gemcitabine, female CD-1 mice
Description: To evaluate the toxicity produced by orally administered compound of formula I when administered daily to female […] mice for 4 days, the gastrointestinal toxicity profiles of a compound of formula I is compared with the historical results for gastrointestinal toxicity when gemcitabine is administered orally at 8 mg/kg in a 4-day mouse study.
Female CD-1 mice 5-8 weeks of age are dosed with a compound of formula I by oral gavage. A dose level is chosen to approximate a molar equivalent of 8-mg/kg gemcitabine. A dose volume of 10 mL/kg is used and doses are administered once daily on 4 consecutive days. Necropsy is performed approximately 5-8 hours following the 4th dose.
Clinical signs, clinical chemistry, gross pathology, and limited histopathology (ileum, jejunum, and liver) are evaluated.

[7] = Small Intestine Homogenate Assay (human); assay type: in vitro ADME, humans; details: human SIH
Description: (§4) Small Intestine Homogenate Assay
(§5) To determine the stability of a compound of formula I to enzymatic hydrolysis in the intestine, crude homogenates of small intestinal epithelial cells are prepared from sections of the upper small intestine from CD-1 mice, beagle dogs, cynomolgus monkeys, and humans. Mouse and dog homogenates are prepared from freshly collected tissue, while monkey and human homogenates are prepared from previously frozen tissues. Cells are gently scraped from intestinal segments, pooled, and homogenized in 50 mM acetate buffer using Polytron (PT-10-85). Protein concentrations are determined by standard spectrophotometric techniques. The prepared homogenates are store at −70° C. before using.
(§6) The hydrolytic rates of a compound of formula I in small intestinal homogenates (SIH) is determined by incubating a compound of formula I (100 uM) with SIH (2.5-5 mg/mL of total protein) in acetate at pH 7.5 for up to 6 hours. Concentrations of gemcitabine released via hydrolysis is determined by LC/MS analysis after the reaction is quenched with acetonitrile. Hydrolysis rates are calculated at 30 minutes in screening experiments and from the slope of the linear portion of the hydrolysis vs. time curves in characterization studies of a compound of formula I.

[8] = Liver S9 Hydrolysis Assay (human); assay type: in vitro ADME
Description: as §1, §2, §3

[9] = Small Intestine Homogenate Assay (mouse); assay type: in vitro ADME, CD-1 mice; details: mouse SIH, 100 uM, pH 7.5
Description: as §4, §5, §6

[10] = pH Chemical Stability Assay; assay type: physicochemical; details: pH range 1 to 8, after four hours, 40° C., 100 mcg/mL
Description: pH Chemical Stability Assay
The pH chemical stability is assessed using a semi-automated HPLC technique. Samples of compound of formula I are prepared at 100 mcg/mL in five buffers representing the pH range throughout the gastrointestinal tract (pH1-pH8). Samples are loaded onto an HPLC autosampler incubated at 40° C. Samples are repeatedly injected on the HPLC at hourly intervals for up to 24 hours with an HPLC column that separates a compound of formula I from gemcitabine. The peak area of the compound of formula I is monitored by UV detection over time and are compared to initial peak areas to determine stability.

[11] = Small Intestine Homogenate Assay (dog); assay type: in vitro ADME, beagle dogs; details: dog SIH, 100 uM, pH 7.5
Description: as §4, §5, §6

[12] = Liver S9 Hydrolysis Assay (mouse); assay type: in vitro ADME, CD-1 mouse; details: mouse liver S9, 10 uM, pH 8.0
Description: as §1, §2, §3

[13] = Small Intestine Homogenate Assay (monkey); assay type: in vitro ADME, cynomolgus monkeys; details: monkey SIH
Description: as §4, §5, §6

Mouse Pharmacokinetics = assay type: in vivo, CD-1 mice
Description: The pharmacokinetic profiles of gemcitabine and a compound of formula I, are assessed in male CD-1 mice following oral administration at doses selected to contain approximately 10 mg/kg of gemcitabine. Designated animals (n=3/time point/compound) are sacrificed at 0.08, 0.25, 0.5, 1, 2, and 6 hours after dosing, and systemic blood samples are collected into EDTA-treated tubes containing tetrahydrouridine (0.5 mM final concentration in blood) to inhibit further metabolism of gemcitabine. An additional 3 animals are sacrificed at 0.08 hours for collection of hepatic portal blood. Plasma is isolated by centrifugation and frozen prior to analysis. Plasma concentrations of gemcitabine and prodrugs are determined by LC/MS/MS analysis. Pharmacokinetic parameters are calculated using WinNonlin software (Pharsight Corp., Mountain View, Calif.). Pharmacokinetic parameters of each prodrug are compared to those determined from administration of oral gemcitabine hydrochloride in a similar study design.

[14] = test system: HCT-116 colon tumor cells; assay: In Vivo Assay, HCT-116 colon tumor xenograft; details: oral gavage, HCT-116 xenograft in female nude mice
Description: HCT-116 colon tumor cells are grown in vitro under standard tissue culture conditions, harvested, washed, and 5×10^6 cells (1:1 suspension in Matrigel, Collaborative Biomedical Products, Inc) are injected subcutaneously in the rear flank of female nude mice (Charles River, CD1 nu/nu, 24-27 g, irradiated with 450 Rads within 24 h of implantation). Tumors are allowed to grow to ˜100 mm^3 before initiation of therapy. Vehicle control, a compound of formula I or gemcitabine-HCl at various dose levels are administered to the mice by oral gavage (10 ml/kg volume) at the times indicated in the individual experiments. Compounds are administered either daily for fourteen days, every other day for a total of seven doses, or every third day for a total of four doses. […] Tumor size is determined by caliper measurements and tumor volume (mm^3) is estimated from the formula l×w^2×0.536, where l is the larger and w is the smaller of perpendicular diameters. All data (tumor measurements and animal weights) are captured twice-weekly beginning with the start of therapy and analyzed using a computer based tumor measurement system.

[15] = cited from earlier work
[16] = result of first pass metabolism; cited from earlier work

CCCC(CCC)C(=O)Nc1ccn([C@@H]2O[C@H](CO)[C@@H](O)C2(F)F)c(=O)n1 [Example 1, 1-(2,2-difluoro-2-deoxy-β-D-ribofuranosyl)-4-(2-propyl-1-oxopentyl)aminopyrimidin-2-one]
hydrolysis in vivo to release gemcitabine [1]: extensively hydrolyzed
hematotoxicity and the other toxicities, including GI toxicity [2]: consistent with what has been previously described for parenteral gemcitabine
hydrolysis in liver S9 ([3]; monkey liver S9, 10 uM, pH 8.0): hydrolyzed
total compound converted to gemcitabine ([3]; monkey liver S9, 6 hour incubation): approximately 3.5%
hydrolysis in liver S9 [4]: hydrolyzed
enteropathy versus gemcitabine HCl on a molar equivalent basis [5]: less enteropathy
systemic exposure to gemcitabine HCl versus gemcitabine HCl on a molar equivalent basis [5]: approximately twice
severity of atrophic intestinal changes or enteropathy versus gemcitabine HCl [6]: significant reduction
rate of hydrolysis in small intestine homogenate ([7]; 100 uM, pH 7.5): slow rate of hydrolysis
total compound converted to gemcitabine ([7]; 6 hour incubation): less than 3%
hydrolysis in liver S9 ([8]; human liver S9, 10 uM, pH 8.0): hydrolyzed
total compound converted to gemcitabine ([8]; human liver S9, 6 hour incubation): approximately 3.5%
rate of hydrolysis in small intestine homogenate [9]: slow rate of hydrolysis
compound degraded to gemcitabine [10]: Less than 25%
rate of hydrolysis in small intestine homogenate [11]: slow rate of hydrolysis
hydrolysis in liver S9 [12]: hydrolyzed
rate of hydrolysis in small intestine homogenate ([13]; 100 uM, pH 7.5): slow rate of hydrolysis
total compound converted to gemcitabine ([13]; 6 hour incubation): less than 3%
concentration of intact prodrug in hepatic portal plasma (Mouse Pharmacokinetics; 0.08 hours after oral dosing, CD-1 mice): relatively high concentrations
hydrolysis in vivo to release gemcitabine (Mouse Pharmacokinetics; administered orally to CD-1 mice, approx. 10 mg/kg of gemcitabine): extensively hydrolyzed
plasma exposure to gemcitabine compared to direct oral administration of gemcitabine hydrochloride (Mouse Pharmacokinetics; oral, CD-1 mice): increased
antitumor efficacy versus equivalent dose of gemcitabine-HCl [14]: comparable
overall toxicity versus equivalent amount of gemcitabine-HCl [14]: less overall toxicity

Nc1ccn([C@@H]2O[C@H](CO)[C@@H](O)C2(F)F)c(=O)n1 [gemcitabine, 2′,2′-difluoro-2′-deoxycytidine]
death or gastrointestinal toxicity ([15]; comparable exposures via intravenous dosing, previous mouse studies): did not result in death or gastrointestinal toxicity
intestinal lesions ([15]; single oral (gavage) dose of 167, 333, or 500 mg/kg, mice): moderate-to-marked loss of mucosal epithelium (atrophic enteropathy)
oral bioavailability [16]: poor oral bioavailability
